Measured values reported in the NIST ThermoML archive (doi:10.1016/j.jct.2007.11.009).

Columns and labels:
[1] = refractive index (Na D-line) (dimensionless); settings: 298.15 K; 101.33 kPa; Liquid; Standard Abbe refractometry
[2] = Liquid, Vibrating tube method

c1ccccc1 [benzene]
Settings | refractive index
[1] | 1.4979

mass density [kg/m3], [2]
Settings | 298.15 K | 308.15 K | 318.15 K | 328.15 K
100 kPa | 873.5 | 862.9 | 852.3 | 841.5
2130 kPa | 875.1 | 864.7 | 854.2 | 843.6
4150 kPa | 876.7 | 866.4 | 856.1 | 845.6
6180 kPa | 878.4 | 868.2 | 857.9 | 847.5
8210 kPa | 879.9 | 869.9 | 859.7 | 849.5
10230 kPa | 881.5 | 871.6 | 861.5 | 851.3
11250 kPa | 882.3 | 872.4 | 862.4 | 852.3
12260 kPa | 883.1 | 873.2 | 863.2 | 853.2
14290 kPa | 884.6 | 874.8 | 865 | 855
16310 kPa | 886.1 | 876.4 | 866.6 | 856.8
18340 kPa | 887.6 | 878 | 868.3 | 858.6
20370 kPa | 889.1 | 879.5 | 869.9 | 860.3
22390 kPa | 890.5 | 881.1 | 871.6 | 862
24420 kPa | 892 | 882.6 | 873.2 | 863.7
26450 kPa | 893.4 | 884 | 874.7 | 865.3
28470 kPa | 894.7 | 885.5 | 876.2 | 866.9
29490 kPa | 895.4 | 886.2 | 877 | 867.8
30500 kPa | 896.1 | 886.9 | 877.8 | 868.6
32530 kPa | 897.5 | 888.4 | 879.2 | 870.1
34550 kPa | 898.8 | 889.7 | 880.7 | 871.7
36580 kPa | 900.1 | 891.1 | 882.1 | 873.1
38600 kPa | 901.4 | 892.5 | 883.6 | 874.7
39620 kPa | 902 | 893.2 | 884.3 | 875.4

CCCCCCCC [octane]
Settings | refractive index
[1] | 1.395

mass density [kg/m3], [2]
Settings | 298.15 K | 308.15 K | 318.15 K | 328.15 K
100 kPa | 698.7 | 690.8 | 682.8 | 674.5
2130 kPa | 700.4 | 692.6 | 684.7 | 676.6
4150 kPa | 702.2 | 694.4 | 686.7 | 678.7
6180 kPa | 703.8 | 696.2 | 688.6 | 680.7
8210 kPa | 705.4 | 698 | 690.4 | 682.6
10230 kPa | 707 | 699.7 | 692.2 | 684.6
11250 kPa | 707.8 | 700.5 | 693.1 | 685.5
12260 kPa | 708.6 | 701.3 | 694 | 686.4
14290 kPa | 710.1 | 703 | 695.7 | 688.3
16310 kPa | 711.7 | 704.5 | 697.4 | 690.1
18340 kPa | 713.1 | 706.1 | 699.1 | 691.8
20370 kPa | 714.6 | 707.6 | 700.7 | 693.6
22390 kPa | 715.9 | 709.1 | 702.3 | 695.2
24420 kPa | 717.4 | 710.6 | 703.9 | 696.9
26450 kPa | 718.8 | 712 | 705.4 | 698.5
28470 kPa | 720.1 | 713.4 | 706.9 | 700
29490 kPa | 720.8 | 714.1 | 707.6 | 700.8
30500 kPa | 721.4 | 714.8 | 708.3 | 701.6
32530 kPa | 722.7 | 716.2 | 709.7 | 703
34550 kPa | 724 | 717.5 | 711.2 | 704.5
36580 kPa | 725.3 | 718.8 | 712.5 | 706
38600 kPa | 726.5 | 720.2 | 713.9 | 707.4
39620 kPa | 727.1 | 720.8 | 714.6 | 708.1
